Results taken from patent US6818656B2, “Method and composition for treatment of irritable bowel disease” (University of Florida, priority 2001, dated 2004).

Columns and labels:
[1] = tested on: stress-induced fecal output; assay: Psychological stress-induced (water avoidance) IBS model, SC administration; format: in vivo; settings: for Stool Output: 6-h collection
From the text: (§1) For drug preparation and administration, the compounds were put into solution with sterile normal saline and sonicated briefly, if necessary. The drugs were made up at concentrations such that the rats received the drugs PO or SC at the rate of 1 cc per kilogram. Mice received the CHX(3,4,3)-trans IP at 1 cc per 100 grams. The solutions were made fresh the day of the study. Control animals received an equivalent amount of saline PO or SC.
Animal care and experimental procedures were approved by the Institutional Animal Care and Use Committee. Male Sprague-Dawley rats (250-350 g, Harlan Sprague-Dawley, Indianapolis, Ind.) were housed in polycarbonate cages in a temperature- and humidity-controlled room with a 12-hour light/dark cycle. The experiments were performed at the same time of the day to decrease diurnal variability. A typical experiment involved 20 rats: 5 saline-treated controls and 5 pretreated with polyamine analogues at each of three doses as either a SC injection or a PO gavage. The rats in the SC studies and in one set of experiments involving PO administration were allowed ad libitum access to a standard rodent diet and tap water until the morning of the experiment. Stress was initiated 30 minutes post drug as described below. In another set of experiments involving PO administration, the animals were fasted overnight but were allowed free access to water. […] In a final experiment, non-stressed control rats were injected with saline SC and housed in individual polycarbonate cages. The fecal output (number of pellets) of the stressed and unstressed animals was recorded at 30-min intervals for a 6-h period, during which they received no food or water.
(§2) To initiate the stress, water was added to each cage to a depth of at least 4.5 cm, i.e., within 0.5 cm of the top of the Pyrex dish. To avoid contact with water, the rats stand on the glass dish for the 6 h of the study. Stool output was expressed as the total number of fecal pellets excreted over the 6-h collection period. Percent reduction was calculated by dividing the mean value from the treated animals (T) by the mean value from the control animals (C), subtracting the resulting quotient from 1.0, and multiplying by 100 [i.e., (1.0−T/C)×100].
(§3) A one-tailed t-test assuming unequal variance was performed on the stool output data of the treated vs control (0 mg/kg) animals for each compound. A value of P<0.05 was considered significant.
The psychological stress-induced IBS model involves subjecting the rats to an aversive stimulus (water) and observing the increase in fecal output over a period of time. […] Control rats received an equivalent amount of saline SC.

[2] = tested on: stress-induced fecal output; assay: Psychological stress-induced (water avoidance) IBS model, PO administration by gavage; format: in vivo, rat; settings: for oral activity against stress-induced fecal output (in words): PO gavage, non-fasted rats, 11.6-115.6 μmol/kg; for Stool Output: 6-hr collection; for % Reduction: vs stressed controls, 6 hr
From the text: as §1
Animal care and experimental procedures were approved by the Institutional Animal Care and Use Committee. Male Sprague-Dawley rats (250-350 g, Harlan Sprague-Dawley, Indianapolis, Ind.) were housed in polycarbonate cages in a temperature- and humidity-controlled room with a 12-hour light/dark cycle. The experiments were performed at the same time of the day to decrease diurnal variability. A typical experiment involved 20 rats: 5 saline-treated controls and 5 pretreated with polyamine analogues at each of three doses as either a SC injection or a PO gavage. The rats in the SC studies and in one set of experiments involving PO administration were allowed ad libitum access to a standard rodent diet and tap water until the morning of the experiment. Stress was initiated 30 minutes post drug as described below. In another set of experiments involving PO administration, the animals were fasted overnight but were allowed free access to water. The animals were then stressed from ½ h to 2 h post-drug (data not shown). In a final experiment, non-stressed control rats were injected with saline SC and housed in individual polycarbonate cages. The fecal output (number of pellets) of the stressed and unstressed animals was recorded at 30-min intervals for a 6-h period, during which they received no food or water.
as §2, with “Once the drug had been administered, the animals were housed individually in polycarbonate cages containing a clear 70×50 mm Pyrex crystallization dish (Fisher, Pittsburgh, Pa.) inverted in the center and held in place with vacuum grease. To initiate” for “To initiate”
as §3
Because an orally active compound would be desirable for the treatment of IBS, selected analogues utilizing oral administration in the same model were assessed. In the initial studies animals were utilized that had been fasted overnight. Rodents were then given the drug of interest PO by gavage and stressed ½ h, 1 h, or 2 h post-drug. Unfortunately, because of the low baseline stool output in fasted control rats, the reductions in fecal output observed upon drug administration cannot be reported with any confidence (data not shown). Thereafter, only non-fasted animals were employed and were given the agents by gavage at doses of 11.6, 23.2, 57.8, or 115.6:mol/kg 30 minutes before initiating the stress. […] At doses of 11.6 and 23.2:mol/kg, CHX(3,4,3)-trans reduced stooling by about 80% (P=0.001 and <0.001, respectively). DEHSPM was effective at a dose of […]:mol/kg (40% diminution of fecal output; P<0.01), and DE(5,4,5) was active at doses of 23.2 and 57.8:mol/kg (55 and 73% reductions in fecal output, respectively; P<0.001 for both doses).

[3] = tested on: castor oil-induced diarrhea; settings: doses equivalent to a 5 mg/kg dose of DEHSPM; cited from earlier work
[4] = 2.3 μmol/kg SC, stress 30 min post drug
[5] = Rattus norvegicus, 2.3 μmol/kg SC, vs stressed controls, 6 h, read-out: % Reduction
[6] = Rattus norvegicus, 11.6 μmol/kg SC, vs stressed controls, 6 h, read-out: % Reduction
[7] = Rattus norvegicus, 23.2 μmol/kg SC, vs stressed controls, 6 h, read-out: % Reduction
[8] = Rattus norvegicus, 57.8 μmol/kg SC, vs stressed controls, 6 h, read-out: % Reduction

| SMILES | Stool Output [1, 4] | Stool Output ([1]; 11.6 μmol/kg SC) | Stool Output ([1]; 57.8 μmol/kg SC) | Stool Output ([1]; 23.2 μmol/kg SC) | inhibition in vivo at 11.6 µmol/kg [1, 6] | inhibition in vivo at 57.8 µmol/kg [1, 8] | also measured |
| --- | --- | --- | --- | --- | --- | --- | --- |
| CC(C)NCCCNCCCNCCCNC(C)C [Compound 2] | 17.6 ± 5.5 number of fecal pellets | 13.6 ± 3.2 number of fecal pellets | 7.4 ± 3.6 number of fecal pellets |  |  |  | activity at diminishing stress-induced fecal output (in words) ([1]; SC administration to stressed rats): ineffective |
| CCCNCCCNCCCCNCCCNCCC [Compound 4] | 11.4 ± 7.2 number of fecal pellets | 11.5 ± 8.7 number of fecal pellets | 0.2 ± 0.4 number of fecal pellets | 5.7 ± 4.1 number of fecal pellets | 48% | 99% | inhibition in vivo at 2.3 µmol/kg [1, 5]: 49%; inhibition in vivo at 23.2 µmol/kg [1, 7]: 74% |
| CC(C)NCCCNCCCCNCCCNC(C)C [Compound 6, N^1,N^12 diisopropylspermine] |  | 1.6 ± 1.8 number of fecal pellets |  |  | 90% |  | oral activity against stress-induced fecal output (in words) [2]: only CHX(3,4,3)-trans, DEHSPM, and DE(5,4,5) showed any activity at all; Stool Output ([1]; 5.8 μmol/kg SC): 4.6 ± 2.3 number of fecal pellets; inhibition in vivo at 5.8 µmol/kg ([1]; Rattus norvegicus, 5.8 μmol/kg SC, vs stressed controls, 6 h, read-out: % Reduction): 70% |
| CC(C)CNCCCNCCCCNCCCNCC(C)C [Compound 7] | 15.9 ± 5.7 number of fecal pellets | 12.2 ± 2.7 number of fecal pellets |  | 6.6 ± 3.1 number of fecal pellets | 34% |  | neurotoxicity in rats at subtherapeutic doses [3]: Signs of neurotoxicity; toxic effects observed in stressed rats ([1]; 23.2 μmol/kg SC): ^gToxic effects were evident, including huddling in the corner of the cage.; inhibition in vivo at 23.2 µmol/kg [1, 7]: 64% |
| CC(C)CNCCCNCCCCNCCCN [Compound 8] | 14.8 ± 3.8 number of fecal pellets | 11.2 ± 2.2 number of fecal pellets |  | 10.6 ± 2.9 number of fecal pellets | 47% |  | toxic effects observed in stressed rats ([1]; 23.2 μmol/kg SC): ^gToxic effects were evident, including huddling in the corner of the cage.; inhibition in vivo at 2.3 µmol/kg [1, 5]: 30%; inhibition in vivo at 23.2 µmol/kg [1, 7]: 50% |
| CC(C)CCNCCCNCCCCNCCCNCCC(C)C [Compound 9] | 18.2 ± 2.8 number of fecal pellets | 14.6 ± 4.5 number of fecal pellets | 0 ± 0 number of fecal pellets |  |  | 100% | neurotoxicity in rats at subtherapeutic doses [3]: Signs of neurotoxicity; toxic effects observed in stressed rats ([1]; 57.8 μmol/kg SC): ^hDue to severe CNS toxicity, 3 of the 5 rats were removed after 4-4.5 h; neither of the remaining 2 rats had any stool output for the remainder of the study.; toxic effects observed in stressed rats ([1]; 57.8 μmol/kg SC, listed as DIPESPM): severe neurotoxicity |
| c1ccc(CNCCCNCCCCNCCCNCc2ccccc2)cc1 [Compound 10] | 12.6 ± 4.8 number of fecal pellets | 11.6 ± 2.9 number of fecal pellets | 8.4 ± 1.5 number of fecal pellets |  |  | 55% |  |
| FC(F)(F)c1ccccc1CCNCCCNCCCCNCCCNCCc1ccccc1C(F)(F)F [Compound 11] | 12.4 ± 2.1 number of fecal pellets | 13.6 ± 5.1 number of fecal pellets |  | 11.4 ± 2.1 number of fecal pellets |  |  |  |
| CCNCCCCCNCCCCNCCCCCNCC [Compound 14, N,N′-bis[5-(ethylamino)pentyl]-1,4-butanediamine] | 13.2 ± 6.3 number of fecal pellets | 2.2 ± 3.3 number of fecal pellets | 0 ± 0 number of fecal pellets |  | 88% | 100% | Stool Output ([2]; 11.6 μmol/kg PO): 15.2 ± 8.5 number of fecal pellets; Stool Output ([2]; 23.2 μmol/kg PO): 8.6 ± 4.9 number of fecal pellets; % Reduction ([2]; 23.2 μmol/kg PO): 55%; Stool Output ([2]; 57.8 μmol/kg PO): 5.1 ± 3.1 number of fecal pellets; % Reduction ([2]; 57.8 μmol/kg PO): 73% |
| C(CCNCCC1CCNCC1)CNCCC1CCNCC1 [Compound 15, N,N′-bis[2-(4-piperidinyl)ethyl]-1,4-diaminobutane] |  |  | 2.0 ± 2.0 number of fecal pellets |  |  | 82% | oral activity against stress-induced fecal output (in words) [2]: only CHX(3,4,3)-trans, DEHSPM, and DE(5,4,5) showed any activity at all; Stool Output ([1]; 2.32 μmol/kg SC): 8.8 ± 1.6 number of fecal pellets; Stool Output ([1]; 11.57 μmol/kg SC): 8.2 ± 3.1 number of fecal pellets |
| CCNCCCCCCNCCCNCCCNCC [Compound 16] |  |  | 0.4 ± 0.9 number of fecal pellets |  |  | 97% | Stool Output ([1]; 2.31 μmol/kg SC): 10.4 ± 5.2 number of fecal pellets; Stool Output ([1]; 11.56 μmol/kg SC): 9.4 ± 4.1 number of fecal pellets; toxic effects observed in stressed rats ([1]; 57.8 μmol/kg SC): ^iThe rats were quite lethargic, as though sedated, after drug administration. |
| CC(C)NCCCCCCNCCCNCCCNC(C)C [Compound 17] |  |  | 0 ± 0 number of fecal pellets |  |  | 100% | toxic effects observed in stressed rats ([1]; 2.32 μmol/kg SC): ^iThe rats were quite lethargic, as though sedated, after drug administration.; Stool Output ([1]; 2.32 μmol/kg SC): 1.4 ± 1.9 number of fecal pellets; toxic effects observed in stressed rats ([1]; 11.56 μmol/kg SC): ^iThe rats were quite lethargic, as though sedated, after drug administration.; Stool Output ([1]; 11.56 μmol/kg SC): 0 ± 0 number of fecal pellets; toxic effects observed in stressed rats ([1]; 57.8 μmol/kg SC): ^iThe rats were quite lethargic, as though sedated, after drug administration.; inhibition in vivo at 2.32 µmol/kg ([1]; Rattus norvegicus, 2.32 μmol/kg SC, vs stressed controls, 6 h, read-out: % Reduction): 84%; inhibition in vivo at 11.56 µmol/kg ([1]; Rattus norvegicus, 11.56 μmol/kg SC, vs stressed controls, 6 h, read-out: % Reduction): 100% |
